From US8349885B2, “Indole and indazole derivatives having a cell-, tissue- and organ-preserving effect” (LG Life Sciences Ltd., priority 2008, dated 2013)

Legend:
[1] = test system: rat-isolated perfusion liver; experiment: Protecting effect against cold ischemia/warm reperfusion injury in rat-isolated perfusion liver model; details: 30 μM in HTK solution, 24-hour cold preservation at 4° C.
Method: In order to verify an organ preservation effect, rat-isolated perfusion liver model was used to evaluate a protecting effect of the compounds of the working examples against cold preservation injury. A white rat was anesthetized by intraperitoneal injection of sodium pentobarbital (50 mg/kg) and administered with heparin (500 U/kg) by intravenous injection to prevent blood coagulation. After incising the abdominal median line, in order to measure bile output, polyethylene tube-10 was inserted into the bile duct, and the coronary vein was tied. Polyethylene tube-190 was inserted into the hepatic portal vein, and a perfusate, Krebs-Henseleit bicarbonate buffer (KHBB) (at pH 7.4 at 37° C.) was perfused at a rate of 4 mL/min/g. […] During the perfusion, a mixed gas (O2 95% and CO2 5%) was continuously injected to KHBB to supply oxygen. […]
In order to observe a protecting effect against ischemia and reperfusion injury, bile output and perfusate's LDH activity were measured. KHBB perfusate released from liver at 5, 10, 20, 30, 40, 50, 60, 70 and 80 minutes after reperfusion was collected, and LDH activity in the perfusate was measured using a biochemical automatic analyzer, Hitachi 7150 (FIG. 4). Bile secreted through the polyethylene tube which had been inserted into the bile duct at 0˜20, 20˜40, 40˜60 and 60˜80 minutes after reperfusion was collected, and bile output was measured (FIG. 5).

[2] = test system: human embryonic lung cell line (LB-HEL); experiment: Cell-protecting effect against cold shock in LB-HEL cells (WST-1); format: cell-based; details: cold shock at 4° C. for 24 hours, then 37° C., cell viability by WST-1
Method: The same results as above were also obtained in other types of cells such as human embryonic lung cell line (LB-HEL) as well as hepatocytes (see FIG. 2 and Table 2). More specifically, LB-HEL cells were plated at 1.5×10^6 cells/well using DMEM medium (Gibco BRL) and treated with DMSO, nec-1, IM-54 or the compounds of Examples 126, 127, 137 and 138 at indicated concentrations. After storage at 4° C. for 24 hours, the mixture was transferred into an incubator at 37° C. and cultured therein. In order to verify recovery capacity at 37° C., cell viability after 24 hours post-transfer was measured by the optical density at 440 nm according to the WST-1 method (MK-400, Takeda) and compared with cell viability prior to cold shock (FIG. 2).

[3] = test system: primary cultured hepatocytes; experiment: Cell-protecting effect against cold shock in primary cultured hepatocytes (WST-1); format: cell-based; details: Rattus norvegicus, Hepatocyte, 37° C. for 1 hour, 4° C. for 22 hours, then 37° C., cell viability by WST-1
Method: In order to reproduce a condition for preservation prior to organ transplantation, primary cultured hepatocytes were prepared according to Experimental Example 1 and treated with the compounds of the working examples at 9 different concentrations that had been prepared by 3-fold serial dilution method using a starting concentration of 25 μM. The mixture was cultured at 37° C. for 1 hour, stored at 4° C. for 22 hours, and then transferred into an incubator at 37° C. and cultured therein. Cell viability was measured by the optical density at 440 nm according to the WST-1 method (MK-400, Takeda), and IC50 (unit: μM) was obtained using prism software (see Table 1).

Question: What does the source list for O=S1(=O)CCN(Cc2cc(NC3CCOCC3)c3[nH]c(-c4ccccc4)cc3c2)CC1 [Example 126, [5-(1,1-dioxo-thiomorpolin-4-ylmethyl)-2-phenyl-1H-indol-7-yl]-(tetrahydropyran-4-yl)-amine]?
Answer: total amount of bile output ([1]; 80 minutes of reperfusion): 0.070±0.006 ml/g liver; inhibition at 30 µM ([1]; Rattus norvegicus, until 50 minutes of reperfusion, read-out: inhibition of LDH activity in the perfusate, compared with the HTK group): 50 to 70%; IC50 [2]: < 100 nM; IC50 [3]: 248 nM
